Measured values: US4515708A, “Corrosion inhibitors” (Exxon Research & Engineering Co., priority 1982, dated 1985)
Read-outs that look alike come from different tables or passages of the source.

What was measured:
[1] = Solubility Test (35 wt% solution in isopropylalcohol shaken with water, brine or heptane); assay type: physicochemical
Experimental: The active material under test was made up into a 35 wt% solution in isopropylalcohol (IPA). 0.3 ml of this solution was shaken with 10 ml of each of the liquids in which solubility is to be tested: water, 5 wt% NaCl solution (brine) and heptane. The mixture was observed after 30 minutes and 24 hours.

[2] = Corrosion Test 4 (dynamic wheel test; 3 wt% brine + Mentor 28; H2S); conditions: 24 h, 70° C.
Experimental: (§1) For each compound three mild steel coupons (approximately 100 mm×12 mm×1.5 mm) were tested at each concentration. Each was contacted in a 250 ml bottle with 200 ml of a test fluid either saturated with a carbon dioxide at 20° C. or containing 100 ppm hydrogen sulphide or having both CO2 and H2 S present in those amounts. The test fluid was treated with a 30% aqueous solution of the compound under test at 2, 10, 50 and 250 ppm except where indicated to the contrary. The coupon was subjected to a dynamic wheel test in which the bottle was mounted radially on the periphery of 650 mm diameter wheel which was rotated at about 40 rpm for 24 hours at 70° C. The weight loss was obtained, and also measured in a control experiment where no inhibitor was present. From this the % protection was calculated as % reduction in weight loss.
(§2) Test fluid: 100 ml 3 wt% brine+100 ml Mentor 28
Corrosives: 100 ppm H2 S (prior nitrogen purge)

[3] = Corrosion Test 1 (dynamic wheel test; 3 wt% brine/Mentor 28; CO2 + H2S); conditions: 24 h, 70° C.
Experimental: as §1
Test fluid: 100 ml 3 wt% brine/100 ml Mentor 28 (Mentor®28 is a depolarised kerosene available from Exxon Chemical Company)
(§3) Corrosives: Saturated CO2 +100 ppm H2 S

[4] = Corrosion Test 2 (dynamic wheel test; 3 wt% brine; CO2 + H2S); conditions: 24 h, 70° C.
Experimental: as §1
Test Fluid: 200 ml 3 wt% brine
as §3

[5] = Emulsion Test (3 wt% brine / heptane); assay type: physicochemical; set-up: Emulsion thickness after 30 mins: unit not given here; conditions: for Time to break emulsion: 1 ml of 35 wt% IPA solution, 50 ml 3 wt% brine, 50 ml heptane; for Appearance after 30 mins, hydrocarbon: hydrocarbon layer; for Appearance after 30 mins, hydrocarbon / Appearance after 30 mins, water / Emulsion thickness after 30 mins: 50 ml 3 wt% brine/50 ml heptane; for Appearance after 30 mins, water: water layer
Experimental: 1 ml of the solutions used for Test A was shaken with 50 ml of 3 wt% brine and 50 ml of heptane for 1 minute in a 150 ml bottle. The emulsion was observed, and the time noted for the emulsion to break and form a clean interface with clear liquid layers. If at 30 minutes this had not occurred, the appearance was recorded together with the thickness of any persisting emulsion.

[6] = Film persistency corrosion test; conditions: CO2 + H2S, 24 h, 70° C.
Experimental: […] A test fluid made up of equal proportions of 3 wt% brine and Mentor 28 was used, saturated with CO2 and containing 100 ppm H2 S as corrosives. Coupons were used as described for the previous corrosion test. A coupon was first immersed in test fluid containing corrosives and the inhibitor under test for 1 hour, then rinsed for 1 hour in a similar test fluid containing no inhibitor and finally transferred to a further test fluid again containing no inhibitor in which the dynamic wheel test was carried out at 70° C. for 24 hours.

[7] = Corrosion Test 3 (dynamic wheel test; 3 wt% brine + Mentor 28; CO2 only); conditions: 24 h, 70° C.
Experimental: as §1, §2
Corrosives: Saturated CO2 only

[8] = 0.3 ml of 35 wt% IPA solution in 10 ml heptane, 30 minutes and 24 hours
[9] = 0.3 ml of 35 wt% IPA solution in 10 ml water, observed after 30 minutes and 24 hours
[10] = 0.3 ml of 35 wt% IPA solution in 10 ml 5 wt% NaCl solution, 30 minutes and 24 hours
[11] = 2 ppm, * active material added as undiluted compound
[12] = 10 ppm, * active material added as undiluted compound
[13] = 50 ppm, * active material added as undiluted compound
[14] = 250 ppm, * active material added as undiluted compound

Compound	% Protection ([2]; 2 ppm) [%]	% Protection ([2]; 10 ppm) [%]	% Protection ([2]; 50 ppm) [%]	% Protection ([2]; 250 ppm) [%]	% Protection ([3]; 2 ppm, 30% solution) [%]	% Protection ([3]; 10 ppm, 30% solution) [%]	% Protection ([3]; 50 ppm, 30% solution) [%]	% Protection ([3]; 250 ppm, 30% solution) [%]	% Protection ([4]; 2 ppm) [%]	% Protection ([4]; 10 ppm) [%]	% Protection ([4]; 50 ppm) [%]	% Protection ([4]; 250 ppm) [%]	Time to break emulsion [5] [min]	Appearance after 30 mins, hydrocarbon [5]	Appearance after 30 mins, water [5]	% Protection ([6]; 500 ppm) [%]	% Protection ([6]; 1000 ppm) [%]	SOLUBILITY IN: Heptane [1, 8]	SOLUBILITY IN: Water [1, 9]	SOLUBILITY IN: Brine [1, 10]	further results
CCCCCCNCCc1ccccn1 [Example 1]	0	22	55	55	15	73	79	91	13	57	83	93	30	clear	clear	18	25	–	–	–	SOLUBILITY IN: Brine [1]: S; SOLUBILITY IN: Heptane [1]: S; SOLUBILITY IN: Water [1]: S; % Protection ([6]; 5000 ppm): 17%
CCCCCCCCCCNCCc1ccccn1 [Example 3]	0	42	65	76	13	63	82	99	7	37	91	97	> 30	hazy	hazy	–	–	S	S	–	–
CCCCCCCCCCCCNCCc1ccccn1 [Example 4]	20	42	50	66	21	73	93	94	24	94	95	96	> 30	hazy	hazy	14	14	S	S	–	% Protection ([7]; 2 ppm): 0%; % Protection ([7]; 10 ppm): 0%; % Protection ([7]; 50 ppm): 7%; % Protection ([7]; 250 ppm): 61%; % Protection ([6]; 5000 ppm): 14%
CCCCCCCCCCCCCCCCNCCc1ccccn1 [Example 6]	0	21	58	70	7	72	89	98	20	41	93	97	> 30	hazy	hazy	–	–	S	S	–	Emulsion thickness after 30 mins [5]: 1.0
CCCCCCCCCCCCCCCCCCNCCc1ccccn1 [Example 7]	–	–	–	–	13	52	87	95	81	89	99	99	> 30	emulsified	clear	13	10	S	S	–	% Protection ([7]; 2 ppm): 2%; % Protection ([7]; 10 ppm): 22%; % Protection ([7]; 50 ppm): 48%; % Protection ([7]; 250 ppm): 67%; % Protection ([6]; 5000 ppm): 19%
NCCNCCc1ccccn1 [Example 13]	–	40	–	57	–	–	–	–	40	42	74	89	> 30	clear	hazy	–	–	S	S	S	% Protection ([7]; 2 ppm): 0%; % Protection ([7]; 10 ppm): 10%; % Protection ([7]; 50 ppm): 19%; % Protection ([7]; 250 ppm): 23%; % Protection [3, 11]: 43%; % Protection [3, 12]: 67%; % Protection [3, 13]: 82%; % Protection [3, 14]: 92%
NCCCNCCc1ccccn1 [Example 14]	–	–	–	–	–	–	–	–	26	64	74	90	> 30	clear	hazy	–	–	S	S	S	% Protection [3, 11]: 47%; % Protection [3, 12]: 70%; % Protection [3, 13]: 70%; % Protection [3, 14]: 92%
NCCNCCNCCc1ccccn1 [Example 15]	–	–	–	–	32	72	80	87	22	63	81	87	10	clear	clear	13	11	–	S	S	% Protection ([6]; 5000 ppm): 17%
NCCNCCNCCNCCc1ccccn1 [Example 16]	10	48	56	61	32	72	81	89	37	59	81	89	10	clear	clear	–	–	S/D	S	S	–
CCCCCCCCCCCCCCCCNCCc1ccncc1 [Example 27]	–	–	–	–	39	69	84	96	40	47	84	94	> 30	clear	hazy	–	–	S	S	–	Emulsion thickness after 30 mins [5]: 3.0
NCCNCCNCCc1ccncc1 [Example 34]	20	45	62	67	22	50	66	80	18	26	48	69	1	clear	clear	–	–	–	S	S	% Protection ([7]; 2 ppm): 6%; % Protection ([7]; 10 ppm): 11%; % Protection ([7]; 50 ppm): 13%; % Protection ([7]; 250 ppm): 18%
NCCNCCNCCNCCc1ccncc1 [Example 35]	–	–	–	–	–	–	–	–	–	–	–	–	1	clear	clear	19	18	–	S	S	% Protection ([6]; 5000 ppm): 20%
